# Results from patent publication US20230382926A1, “COMPOUNDS AND USES THEREOF” (The University of The West Indies, priority 2022, published 2023).
# What was measured:
# Test in all cases: Rescue concentration, modified checkerboard MIC adjuvant assay
# Assay type in all cases: cell-based
# [1] = system: Enterobacter cloacae ATCC BAA-1143; details: E. cloacae ATCC BAA-1143
# Experimental: (§1) Reference microorganisms as well as clinical strains used to evaluate the antimicrobial adjuvant properties of SP-6azaBIM 125 and SP-6azaBIM 136 are listed in Table 3. Clinical strains of bacteria were kindly provided by the Faculty of Medical Sciences, UWI, St. Augustine, Trinidad. All bacterial cultures were cryopreserved in 30% glycerol/Brain Heart Infusion (BHI) at −80° C. Cultures were revived on BHI agar (Oxoid Ltd, England) and maintained at 4° C. until needed.
# (§2) Prior to each experiment, cultures were streaked onto clean BHI agar plates and incubated at 35° C. for 24 hours. Colonies of the respective cultures were selected and inoculated in phosphate buffer saline (pH 7.5) to a 0.5 McFarland turbidity standard (equivalent to 10^8 CFU mL^−1). For inhibitory studies the bacterial suspensions were diluted 1:100 in cation-adjusted Mueller Hinton Broth (ca-MHB) (Oxoid Ltd, England). Fastidious bacteria including Streptococcus pneumoniae, Haemophilus infuenzae and Clostridium difficile were maintained on BHI agar with 5% defibrinated sheep blood and diluted in ca-MHB with 5% defibrinated sheep blood.
# (§3) Antibiotic powders used in this study were purchased from Sigma Aldrich Ltd. (WI, USA). Antibiotic stock solutions were made at 50 mg mL^−1 according to Andrews (2001) and working solutions were prepared 24 h before use and stored at 4° C.
# (§4) HCl salts of the of the SP-azaBIM test compounds were prepared prior to testing and stored at 4° C. Working preparations of each compound were made to 1 mg/mL in sterile deionised water.
# (§5) The antibiotic adjuvant activity of the SPazaBIMs were evaluated in combination with representative antibiotics (representing 13 antibiotic classes) against the 19 pathogens strains listed in Table 3. To assess the adjuvant properties of the SP-azaBIM molecules, a modified checkerboard minimum inhibitory concentration assay was used. A fixed concentration of the respective antibiotic (susceptible breakpoint concentration) was mixed with a twofold dilution series of the test SP-azaBIM (FIG. 1). This was to determine the concentration of SP-azaBIM needed potentiate the antibiotic at a clinically susceptible breakpoint concentration. Antibiotic susceptible breakpoint concentrations for the respective bacteria were determined using Clinical Laboratory Standards Institute (CLSI) criteria M100 ED31.
# (§6) In this study, only those antibiotics to which the bacterial was classed as resistant were included in the adjuvant assays. In this assay we recorded the rescue concentration of the SP-BIM for a respective antibiotic. The rescue concentration was defined as the concentration of the adjuvant that reduces the minimum inhibitory concentration (MIC) of an antibiotic to the susceptibility breakpoint.
# (§7) Immediately prior to testing, the respective antibiotic and SP-azaBIM was dissolved in sterile deionised water at 20× the required test concentration. Each microtiter well was then inoculated with 180 μl of bacterial inoculum of 10^6 CFU/ml in ca-MHB, and 10 μl each if the antibiotic and SP-azaBIM was added to the plates. These plates were then incubated at 35° C. for 24 h under aerobic conditions. A similar method was followed for the fastidious pathogens except that they were cultured in ca-MHB with 5% sheep blood and 5% CO2.
# (§8) Bacterial growth was visually inspected after the incubation period and the rescue concentration of the test SP-azaBIM was determined as the lowest concentration of the compound needed to reduce bacterial growth by 99.99% at the susceptible breakpoint concentration of the antibiotic. For example, CLSI states that Pseudomonas aeruginosa is susceptible to the Imipenem if the MIC is ≤2 μg mL^−1. If the bacteria can tolerate this concentration in vitro, then the bacteria has an intermediate or absolute resistance toward that antibiotic. […]
# [2] = system: Klebsiella pneumoniae ATCC BAA-2814; details: K. pneumoniae ATCC BAA-2814
# Experimental: as §1, §2, §3, §4, §5, §6, §7, §8
# [3] = system: Pseudomonas aeruginosa MDR 5805; details: P. aeruginosa MDR 5805
# Experimental: as §1, §2, §3, §4, §5, §6, §7, §8
# [4] = system: Acinetobacter baumannii clinical isolate 9978; details: A. baumannii clinical isolate 9978
# Experimental: as §1, §2, §3, §4, §5, §6, §7, §8
# [5] = system: Klebsiella pneumoniae ATCC 49472; details: K. pneumoniae ATCC 49472
# Experimental: as §1, §2, §3, §4, §5, §6, §7, §8
# [6] = system: Stenotrophomonas maltophilia MDR 7785; details: S. maltophilia MDR 7785
# Experimental: as §1, §2, §3, §4, §5, §6, §7, §8
# [7] = system: Staphylococcus aureus ATCC BAA-2312; details: S. aureus ATCC BAA-2312
# Experimental: as §1, §2, §3, §4, §5, §6, §7, §8
# [8] = system: Enterococcus faecalis ATCC 51299; details: E. faecalis ATCC 51299
# Experimental: as §1, §2, §3, §4, §5, §6, §7, §8
# [9] = Amp at susceptible breakpoint 8 μg mL^−1
# [10] = Azi at susceptible breakpoint 16 μg mL^−1
# [11] = Ceph at susceptible breakpoint 8 μg mL^−1
# [12] = Chl at susceptible breakpoint 8 μg mL^−1
# [13] = Col at susceptible breakpoint 8 μg mL^−1
# [14] = Dox at susceptible breakpoint 4 μg mL^−1
# [15] = Gen at susceptible breakpoint 4 μg mL^−1
# [16] = Imi at susceptible breakpoint 1 μg mL^−1
# [17] = Tet at susceptible breakpoint 4 μg mL^−1
# [18] = Amox at susceptible breakpoint 8 μg mL^−1
# [19] = Col at susceptible breakpoint 2 μg mL^−1
# [20] = Imi at susceptible breakpoint 2 μg mL^−1
# [21] = Mero at susceptible breakpoint 2 μg mL^−1
# [22] = Pol B at susceptible breakpoint 2 μg mL^−1
# [23] = Cef at susceptible breakpoint 8 μg mL^−1
# [24] = Tri at susceptible breakpoint 8 μg mL^−1
smiles,measurement,setting,value
"Oc1ccc(C(c2c[nH]c3cnccc23)c2c[nH]c3cnccc23)cc1 [SP-6azaBIM 136, 4-(bis(1H-pyrrolo[2,3-c]pyridin-3-yl)methyl)phenol]","Rescue concentration, Amp (8)",[1]; [9],16 µg/mL
same,"Rescue concentration, Azi (16)",[1]; [10],16 µg/mL
same,"Rescue concentration, Ceph (8)",[1]; [11],16 µg/mL
same,"Rescue concentration, Chl (8)",[1]; [12],32 µg/mL
same,"Rescue concentration, Col (8)",[1]; [13],16 µg/mL
same,"Rescue concentration, Dox (4)",[1]; [14],4 µg/mL
same,"Rescue concentration, Gen (4)",[1]; [15],8 µg/mL
same,"Rescue concentration, Imi (1)",[1]; [16],4 µg/mL
same,"Rescue concentration, Tet (4)",[1]; [17],4 µg/mL
same,"Rescue concentration, Amox (8)",[2]; [18],16 µg/mL
same,"Rescue concentration, Amp (8)",[2]; [9],32 µg/mL
same,"Rescue concentration, Aze (4)",[2]; Aze at susceptible breakpoint 4 μg mL^−1,4 µg/mL
same,"Rescue concentration, Azi (16)",[2]; [10],16 µg/mL
same,"Rescue concentration, Cef (16)",[2]; Cef at susceptible breakpoint 16 μg mL^−1,8 µg/mL
same,"Rescue concentration, Ceph (8)",[2]; [11],16 µg/mL
same,"Rescue concentration, Chl (8)",[2]; [12],32 µg/mL
same,"Rescue concentration, Col (8)",[2]; [13],16 µg/mL
same,"Rescue concentration, Dox (4)",[2]; [14],4 µg/mL
same,"Rescue concentration, Gen (4)",[2]; [15],4 µg/mL
same,"Rescue concentration, Imi (1)",[2]; [16],4 µg/mL
same,"Rescue concentration, Tet (4)",[2]; [17],4 µg/mL
same,"Rescue concentration, Amox (8)",[3]; [18],2 µg/mL
same,"Rescue concentration, Col (2)",[3]; [19],4 µg/mL
same,"Rescue concentration, Gen (4)",[3]; [15],4 µg/mL
same,"Rescue concentration, Imi (2)",[3]; [20],2 µg/mL
same,"Rescue concentration, Mero (2)",[3]; [21],2 µg/mL
same,"Rescue concentration, Pol B (2)",[3]; [22],4 µg/mL
same,"Rescue concentration, Amox (8)",[4]; [18],16 µg/mL
same,"Rescue concentration, Cef (8)",[4]; [23],32 µg/mL
same,"Rescue concentration, Col (2)",[4]; [19],64 µg/mL
same,"Rescue concentration, Gen (4)",[4]; [15],16 µg/mL
same,"Rescue concentration, Imi (2)",[4]; [20],2 µg/mL
same,"Rescue concentration, Mero (2)",[4]; [21],32 µg/mL
same,"Rescue concentration, Pol B (2)",[4]; [22],64 µg/mL
same,"Rescue concentration, Amox (8)",[5]; [18],32 µg/mL
same,"Rescue concentration, Amp (8)",[5]; [9],64 µg/mL
same,"Rescue concentration, Col (8)",[5]; [13],32 µg/mL
same,"Rescue concentration, Imi (1)",[5]; [16],16 µg/mL
same,"Rescue concentration, Mero (1)",[5]; Mero at susceptible breakpoint 1 μg mL^−1,32 µg/mL
same,"Rescue concentration, Pol B (8)",[5]; Pol B at susceptible breakpoint 8 μg mL^−1,16 µg/mL
same,"Rescue concentration, Cef (8)",[6]; [23],32 µg/mL
same,"Rescue concentration, Ceph (8)",[6]; [11],64 µg/mL
same,"Rescue concentration, Chl (8)",[6]; [12],16 µg/mL
same,"Rescue concentration, Cip (2)",[6]; Cip at susceptible breakpoint 2 μg mL^−1,16 µg/mL
same,"Rescue concentration, Gen (4)",[6]; [15],64 µg/mL
same,"Rescue concentration, Imi (2)",[6]; [20],32 µg/mL
same,"Rescue concentration, Mero (2)",[6]; [21],32 µg/mL
same,"Rescue concentration, Tri (2)",[6]; Tri at susceptible breakpoint 2 μg mL^−1,>128 µg/mL
same,"Rescue concentration, Azi (2)",[7]; Azi at susceptible breakpoint 2 μg mL^−1,>128 µg/mL
same,"Rescue concentration, Gen (4)",[7]; [15],>128 µg/mL
same,"Rescue concentration, Pen (0.12)",[7]; Pen at susceptible breakpoint 0.12 μg mL^−1,>128 µg/mL
same,"Rescue concentration, Tri (8)",[7]; [24],>128 µg/mL
same,"Rescue concentration, Van (2)",[7]; Van at susceptible breakpoint 2 μg mL^−1,128 µg/mL
same,"Rescue concentration, Amp (8)",[8]; [9],>128 µg/mL
same,"Rescue concentration, Chl (8)",[8]; [12],>128 µg/mL
same,"Rescue concentration, Dox (4)",[8]; [14],>128 µg/mL
same,"Rescue concentration, Ery (0.5)",[8]; Ery at susceptible breakpoint 0.5 μg mL^−1,>128 µg/mL
same,"Rescue concentration, Tri (8)",[8]; [24],>128 µg/mL
same,"Rescue concentration, Van (4)",[8]; Van at susceptible breakpoint 4 μg mL^−1,>128 µg/mL
